Here are results for 25 compounds from patent US20230399312A1, “SUBSTITUTED PYRIMIDINES AND METHODS OF USE” (THERAVANCE BIOPHARMA R&D IP, LLC, priority 2020, published 2023).

Assay [1] deals with TGF-β-stimulated SMAD3 phosphorylation in BEAS-2B cells. In words: Cellular ALK5 potency assay, inhibition of TGF-β stimulated pSMAD3 formation in BEAS-2B cells. The class given is cell-based. Conditions: Homo sapiens, pSMAD3, TGF-β 10 ng/mL, read-out: BEAS2B pIC50 (converted). The essentials: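 Cells were seeded overnight, rinsed into HEPES/BSA-supplemented HBSS, and dosed with serially diluted compound for 1 h at 37 °C, 5% CO2. TGF-β stimulation (10 ng/mL final) followed for 30 min, then lysis and AlphaLISA pSMAD3 measurement; potency reported as pIC50.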

The target of assay [2] is T1, recombinant human ALK5 (TGF-βR1) protein (Homo sapiens, UniProt P36897).
T1 construct: purchased Life Technologies PR9075A
T1 sequence (P36897 34-503): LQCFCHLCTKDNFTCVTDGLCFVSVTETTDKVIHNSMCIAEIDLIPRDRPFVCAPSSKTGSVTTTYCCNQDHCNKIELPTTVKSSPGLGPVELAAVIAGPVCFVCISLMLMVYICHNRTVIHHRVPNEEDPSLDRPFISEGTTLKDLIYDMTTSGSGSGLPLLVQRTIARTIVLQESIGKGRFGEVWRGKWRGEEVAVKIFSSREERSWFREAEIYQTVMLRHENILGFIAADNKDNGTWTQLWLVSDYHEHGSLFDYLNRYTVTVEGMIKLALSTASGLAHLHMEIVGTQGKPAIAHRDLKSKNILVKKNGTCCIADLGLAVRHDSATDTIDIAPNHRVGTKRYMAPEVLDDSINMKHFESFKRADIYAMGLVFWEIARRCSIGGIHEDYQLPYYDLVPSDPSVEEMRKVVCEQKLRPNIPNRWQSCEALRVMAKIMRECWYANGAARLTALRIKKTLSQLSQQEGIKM
In words: Biochemical ALK5 (TGF-βR1) assay to measure pKi (LANCE Ultra ULight kinase assay). The conditions noted are these: apparent pKi, converted from pIC50 by Cheng-Prusoff. The method in brief:
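Dose-response series of each compound were preincubated with the kinase for 60 minutes at room temperature. Phosphorylation proceeded for 60 minutes at 37 °C after ATP addition, was quenched with EDTA, and was detected with a europium anti-phospho-Thr1342 antibody by TR-FRET; pKi was calculated from pIC50.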
A general note: TR-FRET usually uses a lanthanide donor and a delayed reading to cut background.

Turning to `Cc1cccc(-c2nccc(Nc3ccnc(Nc4nc(C5=CCNC5)cs4)n3)n2)n1` [Compound 626, N2-[4-(2,5-dihydro-1H-pyrrol-3-yl)thiazol-2-yl]-N4-[2-(6-methyl-2-pyridyl)pyrimidin-4-yl]pyrimidine-2,4-diamine], the IC50 in assay [1] was 25.1 to 158 nM. For the same compound, the Ki in assay [2] is 0.0398 to 0.316 nM.
For `Cc1cccc(-c2nccc(Nc3ccnc(Nc4ccc(N5CCCC(C(=O)O[C@@H]6CCNC6)C5)cc4)n3)n2)n1` (stereo partly drawn) [Compound 479, [(3R)-pyrrolidin-3-yl] 1-[4-[[4-[[2-(6-methyl-2-pyridyl)pyrimidin-4-yl]amino]pyrimidin-2-yl]amino]phenyl]piperidine-3-carboxylate], in that order: 25.1 to 158 nM and 0.0398 to 0.316 nM.
Consider `Cc1cccc(-c2nccc(Nc3ccnc(Nc4ccc(CN5CCN(C)CC5)cc4)n3)n2)n1` [Compound 305, N2-[4-[(4-methylpiperazin-1-yl)methyl]phenyl]-N4-[2-(6-methyl-2-pyridyl)pyrimidin-4-yl]pyrimidine-2,4-diamine], for which, in assay [1], the IC50 was 25.1 to 158 nM. In addition, the Ki in assay [2] was 0.0398 to 0.316 nM.
For `Cc1cccc(-c2nccc(Nc3ccnc(Nc4ccc(C(=O)O[C@@H]5CC[C@@H](C)NC5)nc4)n3)n2)n1` [Compound 567, [(3R,6R)-6-methyl-3-piperidyl] 5-[[4-[[2-(6-methyl-2-pyridyl)pyrimidin-4-yl]amino]pyrimidin-2-yl]amino]pyridine-2-carboxylate] the same measures were 25.1 to 158 nM and 0.0398 to 0.316 nM.
On to `Cc1cccc(-c2nc(Nc3ccnc(Nc4cc(C(=O)O)cs4)n3)c3cccn3n2)n1` [Compound 1025, 5-[[4-[[2-(6-methyl-2-pyridyl)pyrrolo[2,1-f][1,2,4]triazin-4-yl]amino]pyrimidin-2-yl]amino]thiophene-3-carboxylic acid], for which the IC50 in assay [1] is 25.1 to 158 nM. In addition, in assay [2], the Ki is 0.0398 to 0.316 nM.
For `Cc1cccc(-c2nccc(Nc3ccnc(Nc4ccc(CCO)cc4)n3)n2)n1` [Compound 146, 2-[4-[[4-[[2-(6-methyl-2-pyridyl)pyrimidin-4-yl]amino]pyrimidin-2-yl]amino]phenyl]ethanol], in that order: 25.1 to 158 nM and 0.398 to 3.16 nM.
For `Cc1cccc(-c2nccc(Nc3ccnc(Nc4ccc(C(=O)O[C@H]5CCCNC5)nc4)n3)n2)n1` [Compound 617, [(3S)-3-piperidyl] 5-[[4-[[2-(6-methyl-2-pyridyl)pyrimidin-4-yl]amino]pyrimidin-2-yl]amino]pyridine-2-carboxylate], in that order: 25.1 to 158 nM and 0.0398 to 0.316 nM.
For `Cc1cccc(-c2nccc(Nc3ccnc(Nc4csc(C(=O)O)c4)n3)n2)n1` [Compound 386, 4-[[4-[[2-(6-methyl-2-pyridyl)pyrimidin-4-yl]amino]pyrimidin-2-yl]amino]thiophene-2-carboxylic acid], in assay [1], the IC50 is 1580 to 10000 nM. In assay [2], the Ki was 0.398 to 3.16 nM.
Turning to `CNCCNS(=O)(=O)c1ccc(Nc2nccc(Nc3ccnc(-c4cccc(C)n4)n3)n2)cc1` [Compound 427, N-[2-(methylamino)ethyl]-4-[[4-[[2-(6-methyl-2-pyridyl)pyrimidin-4-yl]amino]pyrimidin-2-yl]amino]benzenesulfonamide], the IC50 in assay [1] is 25.1 to 158 nM. Moreover, in assay [2], the Ki is 0.0398 to 0.316 nM.
For `Cc1cccc(-c2nccc(Nc3ccnc(Nc4csc(C(=O)OCC5CCNCC5)c4)n3)n2)n1` [Compound 607, 4-piperidylmethyl 4-[[4-[[2-(6-methyl-2-pyridyl)pyrimidin-4-yl]amino]pyrimidin-2-yl]amino]thiophene-2-carboxylate] the same measures were 25.1 to 158 nM and 0.0398 to 0.316 nM.
For `Cc1cccc(-c2nccc(Nc3ccnc(Nc4ccc(CN5CC(OCCO)C5)cc4)n3)n2)n1` [Compound 392, 2-[1-[[4-[[4-[[2-(6-methyl-2-pyridyl)pyrimidin-4-yl]amino]pyrimidin-2-yl]amino]phenyl]methyl]azetidin-3-yl]oxyethanol], in that order: 25.1 to 158 nM and 0.0398 to 0.316 nM.
For `Cc1cccc(-c2nc(C)cc(Nc3ccnc(Nc4ccc(N5CCNCC5)cc4)n3)n2)n1` [Compound 482, N4-[6-methyl-2-(6-methyl-2-pyridyl)pyrimidin-4-yl]-N2-(4-piperazin-1-ylphenyl)pyrimidine-2,4-diamine], in that order: 25.1 to 158 nM and 0.0398 to 0.316 nM.
Take `CC(=O)N1CCN(S(=O)(=O)c2ccc(Nc3nccc(Nc4ccnc(-c5cccc(C)n5)n4)n3)cc2)CC1` [Compound 12, 1-[4-[4-[[4-[[2-(6-methyl-2-pyridyl)pyrimidin-4-yl]amino]pyrimidin-2-yl]amino]phenyl]sulfonylpiperazin-1-yl]ethanone]: the IC50 in assay [1] was 25.1 to 158 nM. Moreover, the Ki in assay [2] is 0.0398 to 0.316 nM.
Take `Cc1cccc(-c2nccc(Nc3ccnc(Nc4ccc(N5CCNCC5)cc4)n3)n2)n1` [Compound 418, N4-(2-(6-methylpyridin-2-yl)pyrimidin-4-yl)-N2-(4-(piperazin-1-yl)phenyl)pyrimidine-2,4-diamine]: the IC50 in assay [1] was 25.1 to 158 nM. Further, in assay [2], the Ki was 0.0398 to 0.316 nM.
For `Cc1cccc(-c2nccc(Nc3ccnc(Nc4ccc(C(=O)OC5CNC5)s4)n3)n2)n1` [Compound 258, azetidin-3-yl 5-[[4-[[2-(6-methyl-2-pyridyl)pyrimidin-4-yl]amino]pyrimidin-2-yl]amino]thiophene-2-carboxylate] the same measures were 25.1 to 158 nM and 0.0398 to 0.316 nM.
For `COC(=O)C1CCCN(Cc2ccc(Nc3nccc(Nc4ccnc(-c5cccc(C)n5)n4)n3)cc2)C1` (centres unmarked) [Compound 516, methyl 1-[[4-[[4-[[2-(6-methyl-2-pyridyl)pyrimidin-4-yl]amino]pyrimidin-2-yl]amino]phenyl]methyl] piperidine-3-carboxylate] the same measures were 25.1 to 158 nM and 0.0398 to 0.316 nM.
As for `CC(=O)N1CC(CNc2ccc(Nc3nccc(Nc4ccnc(-c5cccc(C)n5)n4)n3)cc2)C1` [Compound 3, 1-[3-[[4-[[4-[[2-(6-methyl-2-pyridyl)pyrimidin-4-yl]amino]pyrimidin-2-yl]amino]anilino]methyl]azetidin-1-yl]ethanone], the IC50 in assay [1] was 25.1 to 158 nM. Besides, the Ki in assay [2] was 0.398 to 3.16 nM.
Take `Cc1cccc(-c2nccc(Nc3ccnc(Nc4ccc(CN5CC(C(=O)O[C@H]6CCNC6)C5)cc4)n3)n2)n1` [Compound 174, [(3S)-pyrrolidin-3-yl] 1-[[4-[[4-[[2-(6-methyl-2-pyridyl)pyrimidin-4-yl]amino]pyrimidin-2-yl]amino]phenyl]methyl] azetidine-3-carboxylate]: in assay [1], the IC50 is 25.1 to 158 nM. For the same compound, the Ki in assay [2] is 0.0398 to 0.316 nM.
For `Cc1cccc(-c2nccc(Nc3ccnc(Nc4ccc(C)c(N)c4)n3)n2)n1` [Compound 421, N2-(3-amino-4-methyl-phenyl)-N4-[2-(6-methyl-2-pyridyl)pyrimidin-4-yl]pyrimidine-2,4-diamine] the same measures were at most 20 nM and 0.0398 to 0.316 nM.
For `Cc1cccc(-c2nccc(Nc3ccnc(Nc4ccc(C(=O)O[C@@H]5CCN(C)C5)cc4)n3)n2)n1` [Compound 464, [(3R)-1-methylpyrrolidin-3-yl] 4-[[4-[[2-(6-methyl-2-pyridyl)pyrimidin-4-yl]amino]pyrimidin-2-yl]amino]benzoate], in that order: 25.1 to 158 nM and 0.0398 to 0.316 nM.
For `Cc1cccc(-c2nccc(Nc3ccnc(Nc4ccc(N5CCOCC5)cc4O)n3)n2)n1` [Compound 410, 2-[[4-[[2-(6-methyl-2-pyridyl)pyrimidin-4-yl]amino]pyrimidin-2-yl]amino]-5-morpholino-phenol] the same measures were 25.1 to 158 nM and 3.98 to 31.6 nM.
`Cc1cccc(-c2nccc(Nc3ccnc(Nc4ccc(N5CCC(NCC(C)C)CC5)cc4)n3)n2)n1` [Compound 194, N2-[4-[4-(isobutylamino)-1-piperidyl]phenyl]-N4-[2-(6-methyl-2-pyridyl)pyrimidin-4-yl]pyrimidine-2,4-diamine]: the IC50 in assay [1] is 25.1 to 158 nM. In addition, the Ki in assay [2] was 0.0398 to 0.316 nM.
For `Cc1cccc(-c2nccc(Nc3ccnc(Nc4cncc(C(=O)OCC5CNC5)c4)n3)n2)n1` [Compound 548, azetidin-3-ylmethyl 5-[[4-[[2-(6-methyl-2-pyridyl)pyrimidin-4-yl]amino]pyrimidin-2-yl]amino]pyridine-3-carboxylate], in that order: 25.1 to 158 nM and 0.398 to 3.16 nM.
With `Cc1nc(-c2nccc(Nc3ccnc(Nc4ccc(N5CCOCC5)cc4)n3)n2)ccc1F` [Compound 354, N4-[2-(5-fluoro-6-methyl-2-pyridyl)pyrimidin-4-yl]-N2-(4-morpholinophenyl)pyrimidine-2,4-diamine], the IC50 in assay [1] is 25.1 to 158 nM. Further, the Ki in assay [2] is 0.398 to 3.16 nM.
For `Cc1cccc(-c2nccc(Nc3ccnc(Nc4cc(C(=O)OC5CCNCC5)cs4)n3)n2)n1` [Compound 85, 4-piperidyl 5-[[4-[[2-(6-methyl-2-pyridyl)pyrimidin-4-yl]amino]pyrimidin-2-yl]amino]thiophene-3-carboxylate], in that order: 25.1 to 158 nM and 0.0398 to 0.316 nM.
